SMILES strings stand for the structures.

These results are taken from patent publication US6762198B2, “Dihetero-substituted metalloprotease inhibitors” (The Procter & Gamble Company, priority 1999, dated 2004).

Test [1] relates to human subject suffering from rheumatoid arthritis. Description: Example A: oral tablets in a human subject with rheumatoid arthritis. The test is classed as in vivo. Conditions: human 60 kg, three tablets (15 mg compound each) per day orally for 2 years. On the procedure:
A tablet composition for oral administration, according to the present invention, is made comprising:
A human subject weighing 60 kg (132 lbs), suffering from rheumatoid arthritis, is treated by a method of this invention. Specifically, for 2 years, a regimen of three tablets per day is administered orally to said subject.

Test [2] has as its system human subject suffering from osteoarthritis. Briefly: Example B: oral capsule in a human subject with osteoarthritis. The class given is in vivo. Conditions: human 90 kg, capsule containing 70 mg daily for 5 years. On the procedure:
A capsule for oral administration, according to the present invention, is made comprising:
A human subject weighing 90 kg (198 lbs.), suffering from osteoarthritis, is treated by a method of this invention. Specifically, for 5 years, a capsule containing 70 mg of the compound of Example 3 is administered daily to said subject.

Test [3] deals with patient having deep corneal abrasion. Description: Example C: saline-based eye drop in a patient with deep corneal abrasion. The class given is in vivo, human. The following applies: 5% w/w saline-based drop to each eye twice a day. From the text: A saline-based composition for local administration, according to the present invention, is made comprising:
A patient having deep corneal abrasion applies the drop to each eye twice a day.

Test [4] deals with patient suffering from chemical bums. Briefly: Example D: topical composition in a patient with chemical burns. The class given is in vivo, human. The following applies: 0.20% w/v topical composition at each dressing change (b.i.d.). An excerpt:
A topical composition for local administration, according to the present invention, is made comprising:
A patient suffering from chemical bums applies the composition at each dressing change (b.i.d.).

Test [5] relates to human subject with a premetastatic tumor. Briefly: Example G: parenteral suspension in a human subject with a premetastatic tumor. The test is classed as in vivo. The following applies: about 2.0 mL of 100 mg/mL suspension injected beside the tumor twice daily, after 30 days. On the procedure:
A composition for parenteral administration is made comprising:
The above ingredients are mixed, forming a suspension. Approximately 2.0 mL of the suspension is administered, via injection, to a human subject with a premetastatic tumor. The injection site juxtaposes the tumor. This dosage is repeated twice daily, for approximately 30 days.

In test [6] the test system is asthma sufferer. Description: Example E: inhalation aerosol in an asthma sufferer. The following applies: 0.01 mL of 5.0% w/v inhalation aerosol sprayed into the mouth while inhaling. The class given is in vivo, human.

`COc1ccc(-c2ccc(S(=O)(=O)NC(CC(O)CSc3nccs3)C(=O)O)cc2)cc1` (stereo not drawn) [Example 1, 2-[(4′-Methoxy[1,1′-biphenyl]-4-yl)sulfonyl]amino-4-hydroxy-5-[(2-thiazolyl)thio]-pentanoic Acid]: in test [1], the “inflammation, mobility and pain at the end of the treatment period” value is “reduced inflammation, and improved mobility without concomitant pain”.

For the compound `O=C(O)C(CC(O)CSc1nccs1)NS(=O)(=O)c1ccc(-c2ccc(Oc3ccccc3)cc2)cc1` (stereo not drawn) [Example 3, 2-[(4′-Phenoxy[1,1′-biphenyl]-4-yl)sulfonyl]amino-4-hydroxy-5-[(2-thiazolyl)thio]pentanoic Acid], in test [2], the “advancement of erosion/fibrillation of the articular cartilage (x-ray, arthroscopy and/or MRI)” value was “no further advancement of erosion/fibrillation of the articular cartilage”.

In the case of `Cc1ccc(C#Cc2ccc(S(=O)(=O)NC(CC(O)CSc3nccs3)C(=O)O)cc2)cc1` (stereo not drawn) [Example 10, 2-[[4-[(4-Methylphenyl)ethynyl]phenyl]sulfonyl]amino-4-hydroxy-5-[(2-thiazolyl)thio]-pentanoic Acid], the corneal healing entry in test [3] was “Healing is speeded, with no visual sequelae”.

`COc1ccc(-c2ccc(S(=O)(=O)NC(CC(O)CNc3ccccc3)C(=O)O)cc2)cc1` (stereo not drawn) [Example 19, 2-[(4′-Methoxy[1,1′-biphenyl]-4-yl)sulfonyl]amino-4-hydroxy-5-(phenylamino)-pentanoic Acid]: the scarring result in test [4] is listed as “Scarring is substantially diminished”.

Consider `COc1ccc(-c2ccc(S(=O)(=O)NC(CC(O)CSc3ncc[nH]3)C(=O)O)cc2)cc1` (stereo not drawn) [Example 22, 2-[(4′-Methoxy[1,1′-biphenyl]-4-yl)sulfonyl]amino-4-hydroxy-5[(2-imidazolyl)thio]-pentanoic Acid], for which the “symptoms of the disease” value in test [5] was “symptoms of the disease subside”.

For `COc1ccc(-c2ccc(S(=O)(=O)NC(CC(O)CSc3n[nH]c(-c4ccccc4)n3)C(=O)O)cc2)cc1` (stereo not drawn) [Example 42, 2-[(4′-Methoxy[1,1′-biphenyl]-4-yl)sulfonyl]amino-4-hydroxy-5-[(5-phenyl-1H-1,2,4-triazol-3-yl)thio]-pentanoic Acid], the asthma symptoms entry in test [6] is “Asthma symptoms are diminished”.
